This is an account of results in US10781227B2, “Application of metal complexes in anti-tumor and anti-bacterial therapy” (biolitec Unternehmensbeteiligungs II AG, priority 2018, dated 2020).

For assay [1], the system named is HT29, L929, A431, A253, CAL-27 and J774A.1 cell lines. As to the kind of experiment: Cell test of photodynamic activity and light independent toxicity, XTT cell viability assay. Particulars: for activity against the cell lines under irradiation (phototoxicity): 2 or 10 μM photosensitizer, 24 h incubation, white light 50 J/cm^2, XTT after 24 h; for activity against the cell lines without light / toxicity against tumor cells in the absence of light: 2 or 10 μM; for activity against the cell lines without light: no irradiation (dark toxicity); for toxicity against tumor cells in the absence of light: no irradiation. Format: cell-based, human, mouse. The protocol:
The photosensitizing activity was determined in the following cell lines: • HT29 (human colon adenocarcinoma cell line) • L929 (mouse fibroblast cell line) • A431 (human epidermoid carcinoma cell line) • A253 (submaxillary salivary gland, epidermoid cell line) • CAL-27 (human tongue squamous cell carcinoma cell line) • J774A.1 (Mouse BALB/c monocyte macrophage). The cell lines were grown in DMEM (PAA Laboratories GmbH) supplemented with 10% heat-inactivated fetal calf serum (FCS, PAA Laboratories GmbH), 1% penicillin (10000 IU) and streptomycin (10000 μg/ml, PAA Laboratories GmbH). Cells were kept as a monolayer culture in a humidified incubator (5% CO2 in air at 37° C.). A photosensitizer stock solution (2 mM) was performed in DMSO and was kept in the dark at 4° C. […] Cells were incubated with fresh medium (DMEM without phenol red) containing 10% FCS with 2 or 10 μM of the photosensitizer for 24 h before light exposure. Before photosensitization, cells were washed, cell culture medium was exchanged with DMEM without phenol red and 10% FCS, then irradiated at room temperature with white light source at a fixed fluence rate of about 100 mW/cm^2 (50 J/cm^2). Following irradiation, cells were incubated in a humidified incubator (5% CO2 in air at 37° C.) for 24 h until cell viability assay. […] Solution was stored in the dark at −20° C. until use. A sterile solution containing PMS ([…], Applichem GmbH) was needed as an activation reagent for the XTT. 0.383 mg PMS was dissolved in 1 ml PBS-Buffer. The solution should be stored frozen and should not be exposed to light. The XTT reagent solution was thawed in a 37° C. water bath and the activation solution (PMS) was added immediately prior to use. To prepare a reaction solution sufficient for one micro plate (96 wells), 0.1 ml activation solution (PMS) was given to 5 ml XTT reagent. The medium in the micro plate was exchanged with RPMI without phenol red and 10% FCS (100 μl) prior adding 50 μl XTT reaction solution per well. The micro plate was incubated for 2-3 hours at 37° C. and 5% CO2 until an orange dye was formed. The micro plate has been shaken gently to evenly distribute the dye in the wells. The absorbance of the samples was measured with a spectrophotometer (Infinite 200, Tecan Group Ltd.) at a wavelength of 490 nm.

Assay [2] has as its system Staphylococcus aureus DSM 11729. Briefly: Antibacterial testing, colony-forming units after incubation with or without white light. Format: cell-based. Particulars: 100, 10 or 1 μM; for activity against S. aureus under irradiation: 30 min incubation, white light about 100 J/cm^2, CFU/ml; for activity/toxicity against S. aureus without light: no illumination, CFU/ml. The protocol: (§1) The organisms studied were Staphylococcus aureus DSM 11729, Gram-positive; Acinetobacter baumannii DSM30007, and Klebsiella pneumoniae DSM30104, both Gram-negative. Cultures cells are suspended in sterile phosphate-buffered saline (PBS) or sterile PBS supplemented with 10% sterile horse blood serum. The bacterial suspensions are placed into sterile black well plates with clear bottoms. Concentrations of photosensitizer used in the study were as follows: 100 μM, 10 μM and 1 μM. After an incubation time period of 30 minutes, the samples are exposed to white light, with a power density and irradiation time resulting in an energy fluency of about 100 J/cm^2. Control plates contained no photosensitizer and are not exposed to laser light. The control samples for dark toxicity are only exposed to photosensitizer without any illumination. After irradiation, the samples are removed and suspended again in the culture media. The numbers of colony-forming units (CFU/ml) are enumerated after an adequate incubation time period.

Assay [3] deals with Staphylococcus aureus DSM 11729; Acinetobacter baumannii DSM30007; Klebsiella pneumoniae DSM30104. As to the kind of experiment: Antibacterial testing, bacteria not specified. Format: cell-based. Particulars: PBS supplemented with 10% sterile horse blood serum. The protocol: as §1
The test system of assay [4] is Klebsiella pneumoniae DSM30104. Briefly: Antibacterial testing, colony-forming units after incubation with or without white light. Format: cell-based. Particulars: 100, 10 or 1 μM. The procedure:
as §1

Take “Tris[5-(4-β-D-thiogalactosyl)-2,3,5,6-tetrafluorophenyl)dipyrrinato gallium(III) [Example 4.5]”: in assay [1], the “activity against the cell lines under irradiation (phototoxicity)” value is reported as “high activity” and the “activity against the cell lines without light” value is listed as “no activity”. Also, in assay [2], the “activity against S. aureus under irradiation” value is on record as “high activity” and the “activity/toxicity against S. aureus without light” value is “nearly no activity”.
For “Tris[5-(4-β-D-thioglucosyl)-2,3,5,6-tetrafluorophenyl)dipyrrinato gallium(III) [Example 4.3]”, in assay [1], the “activity against the cell lines under irradiation (phototoxicity)” value is recorded as “high activity” and the “activity against the cell lines without light” value is given as “no activity”. In addition, the “antibacterial activity in the presence of complex media (serum addition)” value in assay [3] is given as “antibacterial activity is also observed”. Further, in assay [4] (30 min incubation, white light about 100 J/cm^2, CFU/ml), the “activity against K. pneumoniae under irradiation” value is given as “high activity”. For the same substance, the “activity against K. pneumoniae without light” value in assay [4] (no illumination, CFU/ml) is “nearly no activity”. In assay [2], the “activity against S. aureus under irradiation” value is recorded as “high activity” and the “activity/toxicity against S. aureus without light” value is given as “nearly no activity”.
As for “[bis(2,2′-bipyridyl(4-(hexyloxy)-2,3,5,6-tetrafluorophenyl)-dipyrrinato)]ruthenium(II) chloride [Example 4.6]”, the “toxicity against tumor cells in the absence of light” value (from here on “toxicity against tumor cells”) in assay [1] is “high toxicity”.
“[bis(2,2′-bipyridyl(4-(prop-2-enylamino)-2,3,5,6-tetrafluorophenyl)-dipyrrinato)]ruthenium(II) chloride [Example 4.7]”: the “toxicity against tumor cells” value in assay [1] is “high toxicity”. Moreover, the “antibacterial activity in the presence of complex media (serum addition)” value in assay [3] is reported as “antibacterial activity is also observed”. Also, the “activity/toxicity against S. aureus without light” value in assay [2] is “high toxicity”.
On to “[bis(2,2′-bipyridyl(4-(prop-2-enyloxy)-2,3,5,6-tetrafluorophenyl)-dipyrrinato)]ruthenium(II) chloride [Example 4.8]”, for which the “toxicity against tumor cells” value in assay [1] was “high toxicity”. Further, in assay [2], the “activity/toxicity against S. aureus without light” value is “high toxicity”.
